Data on 1 molecule can be found in ChEMBL document CHEMBL4680302, “Biologic-like In Vivo Efficacy with Small Molecule Inhibitors of TNFα Identified Using Scaffold Hopping and Structure-Based Drug Design Approaches” (J Med Chem, 2020).

Data set [1] has as its system Mus musculus. Put plainly: Antiarthritic activity against anticollagen antibody-induced arthritis BALB/c mouse model assessed as reduction in LPS-induced IL-1beta production administered orally twice daily followed by LPS stimulation after 6 hrs measured on day 12 by RT-PCR analysis. The format is functional, organism-based. The settings on record: dose 2-10 mg/kg, time 12.0 day.

A further data set concerns the target T1, Cytochrome P450 2C8 (Homo sapiens, UniProt P10632).
T1 sequence (P10632 whole entry): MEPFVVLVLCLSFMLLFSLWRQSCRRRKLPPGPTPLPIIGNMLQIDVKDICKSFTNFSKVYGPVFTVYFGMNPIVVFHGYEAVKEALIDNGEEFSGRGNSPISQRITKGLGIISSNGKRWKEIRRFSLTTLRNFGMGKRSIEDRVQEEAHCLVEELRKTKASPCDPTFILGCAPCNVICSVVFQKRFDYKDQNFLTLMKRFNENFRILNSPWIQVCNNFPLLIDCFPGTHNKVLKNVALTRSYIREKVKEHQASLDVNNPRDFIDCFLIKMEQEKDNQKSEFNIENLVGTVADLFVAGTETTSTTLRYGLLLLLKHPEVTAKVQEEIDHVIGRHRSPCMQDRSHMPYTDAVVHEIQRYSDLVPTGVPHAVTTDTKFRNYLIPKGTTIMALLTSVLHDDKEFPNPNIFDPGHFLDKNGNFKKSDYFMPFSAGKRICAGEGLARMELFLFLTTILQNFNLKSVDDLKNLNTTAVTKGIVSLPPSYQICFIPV
Put plainly: Inhibition of recombinant CYP2C8 (unknown origin). Format: ADME.

For a further data set, the target named is Cytochrome P450 2D6 (Homo sapiens, UniProt P10635). Kind of data set: Inhibition of recombinant CYP2D6 (unknown origin). The format is ADME.
Data set [2] addresses T2, Tumor necrosis factor receptor superfamily member 1A (Homo sapiens) (UniProt P19438).
T2 sequence (whole entry): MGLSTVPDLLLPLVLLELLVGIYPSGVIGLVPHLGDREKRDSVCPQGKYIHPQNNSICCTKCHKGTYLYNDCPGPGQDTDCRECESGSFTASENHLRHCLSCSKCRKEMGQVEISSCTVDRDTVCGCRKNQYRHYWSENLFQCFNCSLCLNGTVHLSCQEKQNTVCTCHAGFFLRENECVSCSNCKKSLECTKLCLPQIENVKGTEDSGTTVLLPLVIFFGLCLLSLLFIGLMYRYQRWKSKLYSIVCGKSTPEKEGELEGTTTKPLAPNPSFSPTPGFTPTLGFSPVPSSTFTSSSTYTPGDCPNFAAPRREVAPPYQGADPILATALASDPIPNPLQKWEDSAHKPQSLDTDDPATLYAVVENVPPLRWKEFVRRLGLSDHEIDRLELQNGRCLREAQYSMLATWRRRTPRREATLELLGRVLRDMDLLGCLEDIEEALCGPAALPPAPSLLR
Put plainly: Binding affinity to TNFR1 (unknown origin) assessed as sedimentation coefficient (S) value at 25 uM by ultracentrifugation analysis (reference value: 2.2).

A short description of data set [3]: Total AUC in mouse at 0.5 mg/kg, iv. The settings on record: in vivo. The format is ADME, organism-based. The arrangement: route intravenous, time AUCmax, dose 0.5 mg/kg.
Data set [4] can be described thus: Metabolic stability in human liver microsomes assessed as half-life. Format: ADME, Microsome.
The nature of data set [5]: Clearance in mouse at 0.5 mg/kg, iv. Conditions: in vivo. Format: ADME, organism-based.
For data set [6], the system named is Mus musculus. Kind of data set: Antiarthritic activity against anticollagen antibody-induced arthritis BALB/c mouse model assessed as reduction in LPS-induced IL-17a production administered orally twice daily followed by LPS stimulation after 6 hrs measured on day 12 by RT-PCR analysis. The format is functional, organism-based. The settings on record: dose 2-10 mg/kg, time 12.0 day.

In data set [7] the target is T2, Tumor necrosis factor receptor superfamily member 1A (Homo sapiens). Kind of data set: Binding affinity to TNFR1 (unknown origin) assessed as apparent molecular weight of protein at 25 uM in presence of human TNFalpha by ultracentrifugation analysis (reference value: 27 kDa).
The nature of data set [8]: Total AUC in mouse at 2 mg/kg, po. Format: ADME, organism-based. Set-up: time AUCmax, route oral, dose 2 mg/kg. The settings on record: in vivo.
A further data set addresses Tumor necrosis factor (Homo sapiens, UniProt P01375). Put plainly: Inhibition of human recombinant His-tagged TNF-alpha-mediated E-selectin expression in HUVEC cells preincubated for 30 mins in presence of TNFalpha and measured after 3 hrs by flow cytometry analysis. The format is cell-based.
The nature of data set [9]: Selectivity ratio of drug exposure in TNFalpha-induced C57BL/6J mouse at 5 mg/kg, po at 3 hrs post dose to IC50 for inhibition of human TNFalpha expressed in HEK-Blue-CD40L cells assessed as inhibition of NFkappaB activation by quanti-blue based SEAP assay.
For data set [10], the target named is T2, Tumor necrosis factor receptor superfamily member 1A (Homo sapiens). Kind of data set: Binding affinity to TNFR1 (unknown origin) assessed as apparent molecular weight of protein at 25 uM by ultracentrifugation analysis (reference value: 27 kDa).
Data set [11] is described as follows: Metabolic stability in human liver microsomes assessed as parent compound remaining after 10 mins. Format: ADME, Microsome. Conditions: read-out: Stabilty.
Data set [12] in a line: Selectivity ratio of drug exposure in TNFalpha-induced C57BL/6J mouse at 25 mg/kg, po at 3 hrs post dose to IC50 for inhibition of human TNFalpha expressed in HEK-Blue-CD40L cells assessed as inhibition of NFkappaB activation by quanti-blue based SEAP assay.
A short description of data set [13]: Permeability of the compound across basolateral to apical side of membrane in human Caco-2 cells. The settings on record: read-out: permeability. The format is ADME, cell-based.
Data set [14] relates to Mus musculus. Put plainly: Antiarthritic activity against anticollagen antibody-induced arthritis BALB/c mouse model assessed as reduction in LPS-induced MCP-1 levels administered orally twice daily followed by LPS stimulation after 6 hrs measured on day 12 by RT-PCR analysis. Format: functional, organism-based. The settings on record: dose 2-10 mg/kg, time 12.0 day.
The nature of data set [15]: Protein binding in human assessed as unbound fraction. Format: ADME.
The target in a further data set is T3, Cytochrome P450 1A2 (Homo sapiens, UniProt P05177).
T3 sequence (P05177 whole entry): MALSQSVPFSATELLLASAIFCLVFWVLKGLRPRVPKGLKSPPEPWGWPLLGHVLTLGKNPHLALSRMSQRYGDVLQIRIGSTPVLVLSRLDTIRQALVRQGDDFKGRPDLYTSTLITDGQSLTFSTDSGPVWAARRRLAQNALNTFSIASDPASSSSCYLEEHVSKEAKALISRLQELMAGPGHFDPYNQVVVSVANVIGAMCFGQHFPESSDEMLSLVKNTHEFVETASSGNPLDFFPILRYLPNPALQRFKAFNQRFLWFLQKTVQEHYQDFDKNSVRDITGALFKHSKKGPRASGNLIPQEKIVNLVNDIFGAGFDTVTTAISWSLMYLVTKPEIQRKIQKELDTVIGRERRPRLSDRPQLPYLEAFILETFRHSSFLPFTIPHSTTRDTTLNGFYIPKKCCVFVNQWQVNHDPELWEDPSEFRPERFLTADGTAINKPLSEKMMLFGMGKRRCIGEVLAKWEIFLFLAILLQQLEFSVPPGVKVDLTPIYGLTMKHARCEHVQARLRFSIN
Put plainly: Inhibition of recombinant CYP1A2 (unknown origin). Format: ADME.

Data set [16] in a line: Half-life in mouse at 0.5 mg/kg, iv. Conditions: in vivo. Format: ADME, organism-based.
For data set [17], the target named is Voltage-gated inwardly rectifying potassium channel KCNH2 (Homo sapiens, UniProt Q12809). Kind of data set: Inhibition of human ERG by patch clamp assay.
Data set [18] has as its target T2, Tumor necrosis factor receptor superfamily member 1A (Homo sapiens). Put plainly: Binding affinity to TNFR1 (unknown origin) assessed as sedimentation coefficient (S) value at 25 uM in presence of human TNFalpha by ultracentrifugation analysis (reference value: 2.2).

Cytochrome P450 2D6, sequence (P10635 whole entry): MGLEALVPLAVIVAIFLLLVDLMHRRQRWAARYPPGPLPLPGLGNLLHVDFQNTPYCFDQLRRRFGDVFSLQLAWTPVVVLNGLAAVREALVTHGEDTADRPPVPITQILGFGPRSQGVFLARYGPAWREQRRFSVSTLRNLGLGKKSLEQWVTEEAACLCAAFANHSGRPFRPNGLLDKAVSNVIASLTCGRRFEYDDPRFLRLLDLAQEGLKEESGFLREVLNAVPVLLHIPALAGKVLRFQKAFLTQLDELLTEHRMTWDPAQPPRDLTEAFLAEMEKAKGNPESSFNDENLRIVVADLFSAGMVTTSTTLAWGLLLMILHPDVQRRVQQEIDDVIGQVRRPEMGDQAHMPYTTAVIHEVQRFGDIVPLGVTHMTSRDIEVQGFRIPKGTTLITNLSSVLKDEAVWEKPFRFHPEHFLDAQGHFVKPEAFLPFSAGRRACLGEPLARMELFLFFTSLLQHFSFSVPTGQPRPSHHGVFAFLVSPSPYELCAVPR
Tumor necrosis factor, sequence (P01375 whole entry): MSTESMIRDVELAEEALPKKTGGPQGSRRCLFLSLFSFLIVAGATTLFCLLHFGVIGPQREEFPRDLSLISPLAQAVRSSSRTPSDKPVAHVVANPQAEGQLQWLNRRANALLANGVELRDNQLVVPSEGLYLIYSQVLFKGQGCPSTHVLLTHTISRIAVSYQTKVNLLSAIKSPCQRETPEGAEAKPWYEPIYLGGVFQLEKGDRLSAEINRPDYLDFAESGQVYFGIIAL
Voltage-gated inwardly rectifying potassium channel KCNH2, sequence (Q12809 whole entry): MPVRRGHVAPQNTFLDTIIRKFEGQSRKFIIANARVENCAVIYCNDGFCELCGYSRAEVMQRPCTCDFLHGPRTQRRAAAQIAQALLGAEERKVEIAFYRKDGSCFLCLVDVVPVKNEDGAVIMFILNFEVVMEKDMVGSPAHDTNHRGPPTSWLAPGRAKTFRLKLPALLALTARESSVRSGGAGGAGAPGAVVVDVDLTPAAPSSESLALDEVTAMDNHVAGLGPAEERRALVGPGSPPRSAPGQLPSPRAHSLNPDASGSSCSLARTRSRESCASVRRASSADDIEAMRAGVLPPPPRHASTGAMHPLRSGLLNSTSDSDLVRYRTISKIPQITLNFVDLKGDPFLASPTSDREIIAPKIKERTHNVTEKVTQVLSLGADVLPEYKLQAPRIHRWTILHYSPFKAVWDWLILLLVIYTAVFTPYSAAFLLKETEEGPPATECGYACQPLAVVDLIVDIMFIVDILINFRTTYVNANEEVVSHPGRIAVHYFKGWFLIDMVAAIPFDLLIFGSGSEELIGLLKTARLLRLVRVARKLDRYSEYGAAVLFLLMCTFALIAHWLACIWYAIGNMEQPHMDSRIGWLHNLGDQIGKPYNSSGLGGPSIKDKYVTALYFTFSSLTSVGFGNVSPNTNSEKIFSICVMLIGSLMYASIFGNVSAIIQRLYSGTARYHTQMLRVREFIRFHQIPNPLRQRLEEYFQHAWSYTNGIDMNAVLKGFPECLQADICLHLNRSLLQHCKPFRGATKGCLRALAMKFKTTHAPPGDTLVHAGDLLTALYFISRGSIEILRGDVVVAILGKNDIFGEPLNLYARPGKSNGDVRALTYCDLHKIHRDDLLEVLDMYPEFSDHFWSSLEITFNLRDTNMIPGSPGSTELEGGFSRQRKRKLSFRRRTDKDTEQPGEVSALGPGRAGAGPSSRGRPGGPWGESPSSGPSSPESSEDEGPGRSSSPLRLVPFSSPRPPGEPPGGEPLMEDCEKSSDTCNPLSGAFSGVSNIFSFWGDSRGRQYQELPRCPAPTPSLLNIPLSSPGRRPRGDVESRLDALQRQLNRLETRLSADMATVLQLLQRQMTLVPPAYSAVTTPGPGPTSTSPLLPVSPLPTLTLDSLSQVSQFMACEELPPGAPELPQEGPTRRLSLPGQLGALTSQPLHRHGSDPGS

Turning to `Cc1nc2cc(F)c(-c3cnc(C(C)(C)O)nc3)nc2c(N[C@H](C)c2cc(C#N)ccc2F)c1Cl`, the Activity entry with Mus musculus [1] is “Dose-dependent effect”; in the data set with Mus musculus [6] it was “Dose-dependent effect”; in [7], 28 kDa; in data set [10] it was 27 kDa; in the data set on Mus musculus [14], “Dose-dependent effect”. In addition, the IC50 on Cytochrome P450 2C8 was above 6.7 µM; at Cytochrome P450 2D6, above 20 µM; at Tumor necrosis factor, 30 nM; at Cytochrome P450 1A2, above 20 µM; in data set [17], 5.6 µM. Besides, the Activity index in [2] and in [18] was 2.2 throughout. The area under the curve (AUC) was 2.5 µM·h in data set [3] and 5.9 µM·h in [8]. For the same molecule, the half-life is above 120 min in data set [4] and 372 min in [16]. The clearance in data set [5] was determined as 6.6 mL/min/kg. For the same molecule, the figures for the Selectivity ratio in data set [9] and in [12] were 2 and 7, respectively. In addition, the remaining at 10 min in data set [11] was found to be 95%. Besides, the Papp B→A in data set [13] was 8 ×10⁻⁶ cm/s. Moreover, the Fu in data set [15] turned out to be 0.35%.
